Experimental findings from patent US9399649B2, “Compounds for treating spinal muscular atrophy” (PTC Therapeutics Inc., priority 2012, dated 2016) are described below.

The test system of test [1] is SMA Δ7 homozygous knockout mice. Description: Righting reflex in neonatal Δ7 SMA mice. In kind it is in vivo. Particulars: IP QD from PND 3, measured PND 10, 14 and 18, FIG. 14. As to the method:
The functional change in righting reflex of neonatal SMA mice is used to determine whether treatment with a test compound improves righting reflex.
SMA Δ7 homozygous knockout mice are dosed intraperitoneally (IP) with test compound or vehicle (100% DMSO) QD from PND 3 until the dose regimen is switched to an oral dose BID in 0.5% hydroxypropylmethyl cellulose (HPMC) with 0.1% Tween-80 at a dose 3.16-fold higher than the dose used for IP. The righting reflex time is measured as the time taken by a mouse to flip over onto its feet after being laid on its back. Righting reflex is measured five times for each mouse (allowing a maximal time of 30 sec for each try) with 5 minutes between each measurement. The righting reflex time for SMA Δ7 homozygous knockout mice treated with test compound or vehicle and age-matched heterozygous mice is measured on PND 10, 14 and 18 and plotted.

In the next test the test system is Smn protein. Kind of test: Smn protein assay in cultured cells (SMN HTRF). In kind it is cell-based, human. As to conditions: for Smn protein expression: SMA Type 1 patient fibroblast cells, 48 hour, SMN HTRF assay, FIG. 8; for EC1.5x for Smn protein expression / maximum fold (Fold) increase of Smn protein: SMA patient fibroblast cells (GM03813), 48 hours; for EC1.5x for Smn protein expression: 7-point concentration curve, concentration producing 1.5 times Smn protein vs DMSO vehicle; for maximum fold (Fold) increase of Smn protein: 7-point concentration data, relative to vehicle control. Put shortly: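 SMA patient fibroblasts, 5,000 per well in DMEM-10% FBS, exposed 48 h at 37° C. to a 7-point, 3.16-fold compound series in triplicate. RIPA lysates read by SMN HTRF (665/620 nm, overnight at room temperature); ΔF over blank expressed as fold of vehicle.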
(Time-resolved FRET reads energy transfer from a long-lived donor to a nearby acceptor.)

For test [2], the system named is SMA Δ7 homozygous knockout mice. Description: Survival of neonatal Δ7 SMA mice. The test is classed as in vivo. As to conditions: IP QD PND 3 to PND 23, then orally BID from PND 24 until study end, FIG. 15. As to the method:
The change in the number of surviving mice over time is used to determine whether treatment with a test compound improves survival.
SMA Δ7 homozygous knockout mice are dosed intraperitoneally (IP) with test compound or vehicle (100% DMSO) QD from PND 3 until the dose regimen is switched to an oral dose BID in 0.5% hydroxypropylmethyl cellulose (HPMC) with 0.1% Tween-80 at a dose 3.16-fold higher than the dose used for IP and later switched to an oral dose QD in 0.5% hydroxypropylmethyl cellulose (HPMC) with 0.1% Tween-80 at a dose 6.32-fold higher than the dose used for IP. The number of surviving mice in each group is recorded every day and plotted as a percent of total number of mice. Tissues of SMA Δ7 and age-matched heterozygous mice are collected for the measurement of Smn protein levels and processed as detailed in Example 10. The total protein normalized Smn protein levels measured in the tissues are plotted as a percent of those in the age-matched heterozygous mice tissues, with the Smn level in heterozygous mice set to 100 percent. The level of Smn protein in the test compound treated mice tissue relative to that in heterozygous mice tissue is indicated as a percent value above each bar in the graph.

As for `Cc1cn2cc(-c3cc4ccc(N5CCN(C)CC5)cc4c(=O)o3)nc2c(C)n1` [Cpd 65, 3-(6,8-dimethylimidazo[1,2-a]pyrazin-2-yl)-7-(4-methylpiperazin-1-yl)-1H-isochromen-1-one], in test [1], the righting reflex entry is recorded as “improved compared to vehicle treated mice”. Moreover, in the test on Smn protein, the Smn protein expression result is listed as “dose dependent increase in Smn protein expression”, the “EC1.5x for Smn protein expression” value is on record as “**** (an EC1.5×≦0.3 nM is indicated by four stars (****))” and the “maximum fold (Fold) increase of Smn protein” value is “***** (a fold increase >1.65 is indicated by five stars (*****))”. Besides, the survival result in test [2] is given as “improved compared to vehicle treated mice”.

On to `Cc1cn2cc(-c3cc4ccc(N5CCN6CCC[C@H]6C5)cc4c(=O)o3)nc2c(C)n1` [Cpd 69, 3-(6,8-dimethylimidazo[1,2-a]pyrazin-2-yl)-7-[(8aS)-hexahydropyrrolo[1,2-a]pyrazin-2(1H)-yl]-1H-isochromen-1-one], for which the righting reflex entry in test [1] is “improved compared to vehicle treated mice”. Also, in the test on Smn protein, the Smn protein expression entry is on record as “dose dependent increase in Smn protein expression”, the “EC1.5x for Smn protein expression” value is “**** (an EC1.5×≦0.3 nM is indicated by four stars (****))” and the “maximum fold (Fold) increase of Smn protein” value was “***** (a fold increase >1.65 is indicated by five stars (*****))”. Further, the survival result in test [2] was “improved compared to vehicle treated mice”.
